Among the data in patent US20080312435A1, “Imine Compound” (TAISHO PHARMACEUTICAL CO., LTD., priority 2004, published 2008) are melting point values, retold here.

`Cc1c(C(C)C)s/c(=N\C(=O)c2cccc(C(F)(F)F)c2)n1CC1CC1`: the melting point (commonly the temperature of the solid-liquid transition) fell in the range of 89 to 91 °C. Under `C=CCn1c(-c2ccccc2)c(-c2ccccc2)s/c1=N\C(=O)c1ccccc1` stands 141 to 143 °C; under `Cc1c(CC(C)(C)C(C)(C)C)s/c(=N\C(=O)c2cc(C(F)(F)F)ccc2F)n1CC1CC1`, 88 to 89 °C. For `O=C(/N=c1\ccc(C(F)(F)F)cn1CC1CC1)c1cccc(C(F)(F)F)c1`, the melting point was in the range of 84 to 85 °C. `Cc1cn(CC2CC2)/c(=N\C(=O)c2cccnc2)s1` showed a melting point of 115 to 117 °C. For the compound `COc1cc(C(=O)/N=c2\sc(C(C)(C)C)c(C)n2CC2CC2)c(OC)nn1`, the melting point lay in the range of 124 to 126 °C.

In turn, `O=C(/N=c1\ccccn1CC1CC1)c1cccc(F)c1C(F)(F)F` gave a melting point of 88 to 89 °C. For `Cc1c(C(C)(C)C)s/c(=N\C(=O)c2cccc(N(C)C)c2)n1C` the value was 189 to 190 °C; for `Cc1c(C(C)(C)C)n(C)n(CC2CC2)/c1=N/C(=O)c1cccc(C(F)(F)F)c1F`, 149 to 150 °C; for `Cc1c(C(C)(C)C)s/c(=N\C(=O)c2cc(C(F)(F)F)ccc2N2CCCCC2)n1CC1CC1`, 138 to 140 °C.

Compound `Cc1c(C(C)(C)C)s/c(=N\C(=O)c2cccnc2)n1C.Cl` returned a melting point of 202 to 203 °C. Under `Cc1ncccc1C(=O)/N=c1\sc2ccccc2n1CC1CC1` stands 181 to 183 °C; under `Cc1c(Br)cccc1C(=O)/N=c1\cc(C(C)(C)C)n(C)n1CC1CC1`, 138 to 139 °C; under `Cc1cc2s/c(=N\C(=O)c3ccccc3C)n(CC3CC3)c2cc1C`, 160 to 161 °C. For `Cc1s/c(=N\C(=O)c2ccc(Br)cc2F)n(CC2CC2)c1C` the value was 154 to 155 °C; for `O=C(/N=c1\ccccn1CC1CC1)C(F)(F)F`, 90 to 91 °C. For `COCCn1c(C)c(C(C)(C)C)s/c1=N\C(=O)c1ccc(Cl)cc1F` the value was 68 to 69 °C. The compound `Cc1cccc(C(=O)/N=c2\cc(C(C)(C)C)n(C)n2CC2CC2)c1I` came in with a melting point of 147 to 148 °C. Regarding `CC(C)c1ccccc1C(=O)/N=c1\cc(C(C)(C)C)n(C)n1CC1CC1`, the melting point lay within 113 to 114 °C. For `Cc1c(C(=O)NC(C)C)s/c(=N\C(=O)c2cccc(C(F)(F)F)c2)n1CC1CC1` the value was 212 to 214 °C. For `O=C(/N=c1\sccn1CC1CC1)c1cccc(C(F)(F)F)c1F` the value was 96 to 97 °C; for `Cc1c(C(C)(C)C)s/c(=N\C(=O)c2cccnc2OC2C=CC=CC2)n1CC1CC1` (stereo not shown), 111 to 114 °C. For `Cc1c(C(C)(C)C)s/c(=N\C(=O)C(F)(F)C(F)F)n1CC1CC1` the value was 93 to 94 °C.

On to `Cc1c(C(C)(C)C)s/c(=N\C(=O)c2cccc(Br)c2)n1C`, for which the melting point was in the range of 173 to 175 °C.

In the case of `Cc1c(C(C)(C)C)s/c(=N\C(=O)c2cccc(C(F)(F)F)c2)n1C(C)C`, the melting point was 135 to 137 °C. `CCn1c(C)c(C(C)(C)C)s/c1=N\C(=O)C(F)(F)C(F)(F)C(F)(F)F` had a melting point of 113 to 115 °C. For `Cc1ccc(C(=O)/N=c2\cc(C(C)(C)C)n(C)n2CC2CC2)c(Br)c1` the value was 153 to 154 °C; for `COc1ccc(C(=O)/N=c2\cc(C)cc(C)n2C)c(OC)c1`, 117.5 to 118 °C; for `Cc1ccccc1C(=O)/N=c1\sc2ccccc2n1CC1CC1`, 115 to 117 °C. In the case of `CCN(CC)c1ccc(C(F)(F)F)cc1C(=O)/N=c1\sc(C(C)(C)C)c(C)n1CC1CC1`, the melting point lay in the range of 131 to 133 °C. Under `Cc1c(C(=O)NCCN2CCOCC2)s/c(=N\C(=O)c2cccc(C(F)(F)F)c2)n1CC1CC1` stands 156 to 158 °C; under `Cc1c(C(C)(C)C)s/c(=N\C(=O)c2ccc(F)c(C(F)(F)F)c2)n1CC1CC1`, 123 to 124 °C; under `COc1ccncc1C(=O)/N=c1\sc(C(C)(C)C)nn1CC1CC1`, 94 to 95 °C. `Cn1c(C(C)(C)C)c/c(=N\C(=O)C(F)(F)F)n1CC1CC1` gave a melting point of 122 to 124 °C. In turn, `Cc1c(C(C)(C)C)s/c(=N\C(=O)c2cccc(N3CCCC3)c2)n1CC1CC1` displayed a melting point of 118 to 120 °C. Under `Cc1ccccc1C(=O)/N=c1/sc2cc(F)cc(F)c2n1CC1CC1` stands 146 to 148 °C; under `CC(C)(C)c1nn(CC2CC2)/c(=N/C(=O)c2cc(C(F)(F)F)ccc2F)o1`, 61 to 63 °C.

Regarding `Cc1c(C(=O)N2CCCC2)s/c(=N\C(=O)c2cccc(C(F)(F)F)c2)n1CC1CC1`, the melting point is 125 to 127 °C. Under `Cc1s/c(=N\C(=O)c2ccccc2Cl)n(CC2CC2)c1C` stands 125 to 127 °C; under `Cc1c(C(C)(C)C)s/c(=N\C(=O)c2cc(C(F)(F)F)ccc2N2CCC2)n1CC1CC1`, 100 to 102 °C.

The compound `Cn1c(C(C)(C)C)c/c(=N\C(=O)c2cccc(Cl)c2Cl)n1CC1CC1` showed a melting point of 158 to 159 °C. For the compound `O=C(/N=c1\ccc(C(F)(F)F)cn1CC1CC1)c1cc(C(F)(F)F)ccc1F`, the melting point fell in the range of 109 to 110 °C.

For `Cc1c(C(C)(C)C)s/c(=N\C(=O)c2cc(C(F)(F)F)ccc2N2CCOCC2)n1CC1CC1`, the melting point fell in the range of 86 to 87 °C.

`Cc1ccc(C(=O)/N=c2\sc(C(C)(C)C)c(C)n2CC2CC2)cn1`: the melting point was 228 to 230 °C.

As to `Cc1c(C(C)C)s/c(=N\C(=O)c2cccc(C(F)(F)F)c2F)n1C`, the melting point lay within 89 to 91 °C. Under `COC(=O)c1cccc(C(=O)/N=c2\sc(C(C)(C)C)c(C)n2C)c1` stands 192 to 193 °C.

In the case of `COCCCn1/c(=N/C(=O)c2cccc(C(F)(F)F)c2F)cc(C)n1C`, the melting point lay within 88 to 90 °C. Under `O=C(/N=c1\ccc(C(F)(F)F)cn1CC1CC1)c1ccccc1C(F)(F)F` stands 93 to 93.5 °C; under `CC(C)(C)c1nn(CC2CC2)/c(=N/C(=O)c2ccc(F)cc2C(F)(F)F)s1`, 76 to 78 °C; under `Cc1c(C(C)(C)C)s/c(=N\C(=O)c2cccc(N3CCCCC3)c2)n1CC1CC1`, 89 to 90 °C. Under `CCn1c(C)c(C(C)(C)C)s/c1=N\C(=O)CC1CCCC1` stands 149 to 150 °C. In turn, `O=C(/N=c1\ccccn1CCC1CC1)c1cccc(C(F)(F)F)c1F` showed a melting point of 56 to 58 °C. Under `COc1cc(C(=O)/N=c2\sc(C(C)(C)C)c(C)n2CC2CC2)cc(Cl)n1` stands 127 to 128 °C; under `CCc1s/c(=N\C(=O)c2cccc(C(F)(F)F)c2F)n(CC)c1C`, 115 to 117 °C; under `Cc1c(C(C)(C)C)s/c(=N\C(=O)C2CCC2)n1CC1CC1`, 189 to 191 °C. Under `Cc1s/c(=N\C(=O)c2ccc(F)cc2Br)n(CC2CC2)c1C` stands 144 to 146 °C. For `CC(C)c1s/c(=N\C(=O)c2cncc(Br)c2)n(CC2CC2)c1C(F)(F)F` the value was 139 to 141 °C; for `COCCNC1=C(C(=O)/N=c2\sc(C(C)(C)C)c(C)n2CC2CC2)CC(C(F)(F)F)C=C1` (stereo not shown), 131 to 132 °C.

On to `O=C(/N=c1\ccccn1CCc1ccccc1)c1cccc(C(F)(F)F)c1F`, for which the melting point was 117 to 118 °C.

With `COc1ccc(C(=O)/N=c2\sc(C(C)(C)C)c(C)n2C)c(OC)c1`, the melting point lay within 138 to 140 °C. The compound `O=C(/N=c1\ccc(-c2ccccc2)cn1CC1CC1)c1cccc(C(F)(F)F)c1F` yielded a melting point of 115 to 116 °C. Take `O=C(/N=c1\ccccn1CC1CC1)c1cccc(C(F)(F)F)c1`: the melting point is 105.5 to 106.5 °C. Under `Cc1c(C(C)(C)C)s/c(=N\C(=O)c2cccnc2OC(C)C)n1CC1CC1` stands 151 to 153 °C; under `Cc1ccccc1C(=O)/N=c1\sc(C(C)(C)C)c(C)n1C`, 173 to 175 °C. For `CCCc1c(C(=O)/N=c2\sc(C(C)(C)C)c(C)n2CC2CC2)cnn1-c1ccccc1` the value was 104 to 105 °C. For `Cc1c(C(C)(C)C)s/c(=N\C(=O)c2ccc(C(=O)O)cc2)n1CC1CC1` the value was 196 to 197 °C. Turning to `CC(C)(C)c1nn(CC2CC2)/c(=N/C(=O)c2cc(C(F)(F)F)ccc2F)s1`, the melting point lay in the range of 47 to 49 °C. Under `CCn1c(C)c(C(C)(C)C)s/c1=N\C(=O)c1cc(C(F)(F)F)ccc1C` stands 63 to 65 °C; under `COc1ccc(C(F)(F)F)cc1C(=O)/N=c1\cc(C(C)(C)C)n(C)n1CC1CC1`, 99 to 101 °C. Under `Cc1c(C(C)(C)C)s/c(=N\C(=O)c2cccc(N3CCN(C)CC3)c2)n1CC1CC1` stands 126 to 128 °C. Compound `Cc1c(I)cccc1C(=O)/N=c1\cc(C(C)(C)C)n(C)n1CC1CC1` registered a melting point of 138 to 140 °C. For `COCCn1/c(=N/C(=O)c2cccc(C(F)(F)F)c2F)cc(C)n1C`, the melting point fell in the range of 144 to 145 °C. For `Cc1cn(C)/c(=N/C(=O)c2cccnc2)s1` the value was 173 to 174 °C. The compound `Cc1c(C(C)(C)C)s/c(=N\C(=O)c2ccc(F)c(C#N)c2)n1CC1CC1` yielded a melting point of 195 to 197 °C. For `Cc1c(C(C)(C)C)s/c(=N\C(=O)c2cccc(C(N)=O)c2)n1CC1CC1` the value was 76 to 78 °C; for `Cc1ccc(C(=O)/N=c2\cc(C(C)(C)C)n(C)n2CC2CC2)cc1Cl`, 135 to 136 °C; for `Cc1ccccc1C(=O)/N=c1/sc2cccc(C)c2n1CC1CC1`, 133 to 134 °C. In turn, `CCCn1c(C)c(C(C)(C)C)s/c1=N\C(=O)c1cccc(C(F)(F)F)c1` displayed a melting point of 172 to 174 °C. The compound `Cc1ccc(F)cc1C(=O)/N=c1\cc(C(C)(C)C)n(C)n1CC1CC1` registered a melting point of 161 to 162 °C. The compound `CCn1c(C)c(C(C)C)s/c1=N\C(=O)c1cccc(C(F)(F)F)c1F` gave a melting point of 64 to 66 °C. Under `CCCNc1ccc(C(F)(F)F)cc1C(=O)/N=c1\sc(C(C)(C)C)c(C)n1CC1CC1` stands 131 to 132 °C; under `Cc1c(C(C)(C)C)s/c(=N\C(=O)c2ccc(Cl)c(C(F)(F)F)c2)n1CC1CC1`, 122 to 124 °C.
